The text below walks through data of PMC6767355 (Journal of Medicinal Chemistry, 2019).

Each structure is given as a SMILES string. Where two headings read alike, the source gives them in different places. Some results are limits rather than exact numbers.

For test [1], the target named is T1, CphA (Aeromonas hydrophila, UniProt P26918).
T1 construct: made in house
As to conditions: cited from earlier work.

Test [2] concerns the target T2, L1 (Stenotrophomonas maltophilia, UniProt P52700).
T2 construct: made in house
The following applies: cited from earlier work.

Test [3] relates to NDM-1-producing Escherichia coli clinical isolates. Put plainly: Antimicrobial susceptibility testing, MIC by agar dilution. It counts as cell-based. As to conditions: antibiotic alone; for MIC: Escherichia coli, strain S117, Ec, read-out: Cef/MEM MIC. As for the experimental part: (§1) Minimal inhibitory concentration (MIC) values were determined by the agar dilution method and interpreted using published guidelines described by EUCAST/CLSI.[57] All reported MIC values are within ±1 log2 dilution of the reference MIC values.
For orientation: Agar dilution tests growth on a series of plates holding different concentrations.

The subject of test [4] is NDM-1-producing Klebsiella pneumoniae clinical isolates. Described as above. It counts as cell-based. As to conditions: antibiotic alone; for MIC: Klebsiella pneumoniae, strain B64, Kp, read-out: Cef/MEM MIC. As for the experimental part:
as §1

The subject of test [5] is six NDM-1-producing clinical isolates of Escherichia coli and Klebsiella pneumoniae. Put plainly: Antimicrobial susceptibility testing, MIC, summary over six clinical isolates. It counts as cell-based. The following applies: read-out: MIC in the absence of VNRX-5133; all six NDM-1-producing isolates. As for the experimental part:
as §1

Test [6] addresses T3, NDM-1 (Klebsiella pneumoniae, UniProt C7C422).
T3 construct: made in house
It counts as biochemical. The following applies: pre-incubation 0-180 min; supports reversible inhibition.

Test [7] has as its target T2, L1. Put plainly: β-lactamase inhibition, fluorogenic FC5 hydrolysis assay. It counts as biochemical.
Test [8] addresses T4, OXA-10 (Pseudomonas aeruginosa, UniProt P14489).
T4 construct: made in house
The following applies: cited from earlier work.

Broadly, the IC50 is the concentration needed to halve the response being measured.

T2 sequence (P52700 34-290): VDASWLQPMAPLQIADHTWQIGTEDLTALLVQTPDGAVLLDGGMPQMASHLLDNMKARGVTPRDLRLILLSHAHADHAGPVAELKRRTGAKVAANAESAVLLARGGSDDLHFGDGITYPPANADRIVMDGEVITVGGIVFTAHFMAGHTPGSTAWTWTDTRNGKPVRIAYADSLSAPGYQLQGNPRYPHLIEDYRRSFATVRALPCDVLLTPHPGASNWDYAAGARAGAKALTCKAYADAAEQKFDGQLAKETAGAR
T4 sequence (P14489 20-266, species assumed): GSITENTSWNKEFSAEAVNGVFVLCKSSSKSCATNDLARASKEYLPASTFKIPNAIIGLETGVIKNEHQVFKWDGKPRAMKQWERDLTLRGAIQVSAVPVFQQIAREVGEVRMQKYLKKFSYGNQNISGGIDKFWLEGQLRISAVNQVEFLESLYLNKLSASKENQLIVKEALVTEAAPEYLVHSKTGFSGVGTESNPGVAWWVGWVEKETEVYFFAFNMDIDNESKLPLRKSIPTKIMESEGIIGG
T1 sequence (P26918 28-254): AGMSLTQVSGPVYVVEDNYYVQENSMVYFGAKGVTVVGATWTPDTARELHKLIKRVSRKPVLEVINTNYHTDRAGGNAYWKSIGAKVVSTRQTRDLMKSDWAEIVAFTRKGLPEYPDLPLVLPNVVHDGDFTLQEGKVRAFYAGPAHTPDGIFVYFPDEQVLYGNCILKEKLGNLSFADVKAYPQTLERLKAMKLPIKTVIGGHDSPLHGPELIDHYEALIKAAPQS
T3 sequence (C7C422 29-270, looked up, species assumed): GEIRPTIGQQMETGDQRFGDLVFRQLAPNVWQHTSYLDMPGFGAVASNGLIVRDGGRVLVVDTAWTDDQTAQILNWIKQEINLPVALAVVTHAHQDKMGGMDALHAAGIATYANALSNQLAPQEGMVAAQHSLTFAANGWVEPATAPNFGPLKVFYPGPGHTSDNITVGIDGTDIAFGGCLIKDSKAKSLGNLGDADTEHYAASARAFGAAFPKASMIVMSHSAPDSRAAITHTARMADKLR

Consider `NCc1ccc(C(=O)N[C@H]2Cc3cccc(C(=O)O)c3OB2O)cc1` [CB2], for which the IC50 in test [1] was over 100 µM. In addition, the “IC50 L1” value in test [2] was “not inhibited[41]”.
As for `CO/N=C(\C(=O)N[C@@H]1C(=O)N2C(C(=O)[O-])=C(C[N+]3(C)CCCC3)CS[C@H]12)c1csc(N)n1` [Cef, cefepime], the MIC in test [3], in test [4] and in test [5] was over 64 µg/mL in each case. For the same compound, the “Cef/MEM MIC” value is recorded as over 64 μg mL^–1 in test [3] (strain 91N, Ec); over 64 μg mL^–1 in test [3] (strain IR57, Ec); over 64 μg mL^–1 in test [4] (strain B68-1, Kp); over 64 μg mL^–1 in test [4] (strain IR43, Kp).
Turning to `C[C@@H](O)[C@H]1C(=O)N2C(C(=O)O)=C(S[C@@H]3CN[C@H](C(=O)N(C)C)C3)[C@H](C)[C@H]12` [MEM, meropenem], the MIC in test [3], in test [4] and in test [5] was over 64 µg/mL in each case. The “Cef/MEM MIC” value in test [3] (strain 91N, Ec) was over 64 μg mL^–1; in test [3] (strain IR57, Ec), over 64 μg mL^–1; in test [4] (strain B68-1, Kp) it was over 64 μg mL^–1; in test [4] (strain IR43, Kp) it was over 64 μg mL^–1.
Take `NCCN[C@H]1CC[C@H](CC(=O)N[C@H]2Cc3cccc(C(=O)O)c3OB2O)CC1` [VNRX-5133, (R)-3-(2-(trans-4-((2-Aminoethyl)amino)cyclohexyl)acetamido)-2-hydroxy-3,4-dihydro-2H-benzo[e][1,2]oxaborinine-8-carboxylic Acid]: the “effect of variation in pre-incubation time on IC50, NDM-1” value in test [6] is listed as “did not result in different IC50 values”. Also, the “inhibition of subclass B3 MBL L1 (in words)” value in test [7] is “nor did it inhibit”. In test [7] (B3 MBL, FC5), this compound came in with an IC50 of over 10 µM.
On to `O=C(O)C[C@@H]1CC[C@H](NC(=O)Cc2cccs2)B(O)O1` [vaborbactam], for which the 50% inhibitory concentration (IC50) in test [8] (100 mM aqueous sodium bicarbonate, read-out: IC50 OXA-10 (b)) was over 400 µM; in test [8] (without sodium bicarbonate, read-out: IC50 OXA-10), over 400 µM. Besides, the “inhibition of OXA-10 (in words)” value in test [8] is “not inhibited”.
